Source: the NIST ThermoML archive (doi:10.1021/je900093h)

Assay: molar heat capacity at saturation pressure
Settings: Crystal, Vacuum adiabatic calorimetry

CCCCCCCCCC(=O)OCC [ethyl decanoate]
Settings | molar heat capacity [J/K/mol]
138.13 K | 196.6
140.08 K | 198.3
140.1 K | 198.4
142.02 K | 200
142.07 K | 200.1
143.97 K | 201.6
144.06 K | 201.8
145.92 K | 203.3
146.04 K | 203.6
147.87 K | 205
148.02 K | 205.3
149.82 K | 206.5
150 K | 206.9
151.77 K | 208.2
151.98 K | 208.5
153.72 K | 209.7
153.97 K | 210
155.68 K | 211.2
155.95 K | 211.5
157.63 K | 212.8
157.93 K | 213.2
159.59 K | 214.4
159.92 K | 214.8
161.55 K | 215.9
161.91 K | 216.3
163.5 K | 217.4
163.89 K | 217.8
165.46 K | 218.9
165.88 K | 219.2
167.42 K | 220.4
167.86 K | 220.8
169.38 K | 222
169.85 K | 222.3
171.34 K | 223.6
171.83 K | 223.9
173.3 K | 225.1
173.81 K | 225.6
175.26 K | 226.6
175.79 K | 227.1
177.23 K | 228.3
177.77 K | 228.7
179.19 K | 229.8
179.74 K | 230.3
180.73 K | 230.9
181.15 K | 231.3
181.61 K | 231.8
181.72 K | 232
182.71 K | 232.5
183.11 K | 233.1
183.59 K | 233.4
183.69 K | 233.6
184.69 K | 234.2
185.07 K | 234.7
185.57 K | 235.1
185.67 K | 235.2
186.66 K | 235.8
187.04 K | 236.4
187.54 K | 236.7
187.64 K | 236.8
188.63 K | 237.5
189 K | 238
189.52 K | 238.4
189.6 K | 238.5
190.6 K | 239.3
190.96 K | 239.7
191.49 K | 240
191.57 K | 240.2
191.61 K | 240.1
192.56 K | 240.9
192.93 K | 241.4
193.45 K | 241.6
193.53 K | 241.9
193.58 K | 241.8
194.53 K | 242.6
194.89 K | 243.1
195.42 K | 243.3
195.48 K | 243.5
195.54 K | 243.5
196.49 K | 244.4
196.85 K | 244.7
197.38 K | 245
197.44 K | 245.2
197.5 K | 245.2
198.44 K | 246.2
198.81 K | 246.5
199.33 K | 246.7
199.39 K | 247
199.46 K | 246.8
200.4 K | 247.8
200.77 K | 248.3
201.28 K | 248.3
201.35 K | 248.7
201.46 K | 248.6
202.35 K | 249.5
202.74 K | 249.9
203.24 K | 250.1
203.29 K | 250.4
203.52 K | 250.4
204.3 K | 251.3
